# Legend:
# blood sugar level [1] = experiment: Glucose tolerance test in normal rats (oral compound, glucose load 1 hour later); assay type: in vivo, normal rat
# Method: (§1) One index for the treatment of diabetes is to improve this glucose tolerance. The compound of the present invention was orally administered to normal rats, Streptozotocin-induced mildly diabetic rats and AYKK-mice, and thereafter glucose was administered intraperitoneally 1 hour later, and the glucose tolerance was examined. […] Further, a lowering of blood sugar in the glucose tolerance test using normal rats was examined with the passage of time, and the results obtained are given in Table 1 below.
# (§2) A sample aqueous solution or suspension was orally administered to the test animals which had been fasted for 24 hours and one hour later glucose was intraperitoneally or subcutaneously administered to the test animals. Thereafter, blood was sampled from the tail vein with the passage of time in order to determine the blood sugar level by the glucose-oxidase method.
# blood sugar level [2] = experiment: Blood sugar lowering activity, fasted rat; assay type: in vivo
# Method: (§3) The compounds of the present invention were orally administered to normal rats, mice, dogs and hereditary diabetic mice(AYKK-mice), and the blood sugar lowering activity was examined.
# (§4) Test animals which were used included animals which had been fasted for 24 hours to achieve an empty stomach, and animals which had been fed to achieve a full stomach without any restriction of diet. A sample aqueous solution or suspension was orally administered, and blood was sampled with the passage of time from the tail vein or the cephalic vein in order to determine the level of blood sugar by the glucose-oxidase method.
# blood sugar level [3] = experiment: Blood sugar lowering activity, fed mouse; assay type: in vivo; details: 25 mg/kg PO
# Method: as §3, §4
# blood sugar level [4] = experiment: Blood sugar lowering activity, fasted beagle; assay type: in vivo, beagle dog; details: 25 mg/kg PO
# Method: as §3, §4
# blood sugar level [5] = experiment: Blood sugar lowering activity, fed AγKK (AYKK) mouse, hereditary diabetic; assay type: in vivo; details: fed AγKK mouse
# Method: as §3, §4
# blood sugar level [6] = experiment: Glucose tolerance test in streptozotocin-induced mildly diabetic rats; assay type: in vivo, rat (Wistar strain); details: 10 mg/kg PO; glucose 1 g/kg; sum of increments at 15, 30, 60, 90 min vs control; 100 = no improvement
# Method: as §1, §2
# *4The streptozotocin-induced mildly diabetic rats were produced by […]
# blood sugar level [7] = experiment: Glucose tolerance test in AYKK mice; assay type: in vivo, AYKK mouse; details: 25 mg/kg PO; glucose 1 g/kg; sum of increments at 15, 30, 60, 90 min vs control; 100 = no improvement
# Method: as §1, §2
# *5AYKK-mouse was obtained by mating a yellow mouse having symptoms of […]
# blood insulin [8] = experiment: Insulin releasing action, fed rats; assay type: in vivo, rat; details: 25 mg/kg iv
# Method: (§5) Among the test animals fed rats were anesthetized by administration of pentobarbital (40 mg/kg, ip), and administered, intravenously with an isotonic sodium chloride solution of Compound A. An aqueous solution of the sample was orally administered to fed mice. In both cases blood was sampled from the tail vein with the passage of time, and the blood insulin was determined by the radioimmunoassay method of Morgen et al [Diabetes, Vol. 12, pp 115 (1963)]. At the same time blood sugar was also determined. […] The amount of insulin released in Table 4 was obtained by determining the difference between the blood insulin level at 5 points (5, 10, 20, 30, 40 minutes) during a 40 minute period after administration of the sample in the case of rats or 3 points (0.5, 1.0, 2.0 hours) during a 2 hour period after administration of the sample in the case of mice and the blood insulin level at 0 minute just before administration of the sample and then by summing up these differences.
# blood insulin [9] = experiment: Insulin releasing action, fed mice; assay type: in vivo, mouse; details: fed mice, 25 mg/kg po
# Method: as §5
# serum lactate level = experiment: Influence on serum lactate level, repeated administration for 4 days; assay type: in vivo, normal rat; details: Compound A 200 mg/kg/day (phenformin dose not given)
# Method: The biguanide drugs heretofore used as a treatment for diabetes are said undesirably to cause acidosis due to an increase of serum lactate level when such drugs are repeatedly administered. The compounds of the present invention were repeatedly administered for 4 days to normal rats and the serum lactate level was determined every day to compare such with the administration of phenformine which is one example of a biguanide drug.
# Compound A was repeatedly administered for 4 days to normal rats in a dosage of 200 mg/kg/day, and blood was sampled with the passage of time in order to determine the serum lactate level.
# [10] = tested on: blood platelet aggregation induced by collagen in rat platelet rich plasma; experiment: Blood platelet aggregation inhibiting activity (collagen induced, in vitro); assay type: cell-based; details: read-out: Platelet Aggregation Inhibition Activity, ID50
# Method: It is generally said that blood platelet aggregability is accelerated in a diabetes patient and that this secondarily causes blood vessel disorders. […] Thus, based on this the compounds of the present invention are expected to be useful in preventing and improving the secondary vasular lesions of diabetes mellitus.
# Citrated rat blood was centrifuged in order to obtain platelet rich plasma, and to 0.4 ml of this plasma was added 50 μl of sample solution. To the resulting solution was added 50 μl of collagen suspension under stirring, and platelet aggregation reaction was determined according to the method of Born [Nature, Vol. 194, pp. 927 (1962)]. The concentration of the sample (ID50) which inhibits 50% of the aggregation reaction of the control without the test sample added is shown in Table 6 below.
# Acute toxicity (rat) = details: in vivo, read-out: Acute Toxicity (rat) ID50
structure (smiles),measurement,setting,value
"c1ccc(C(CC2=NCCN2)c2ccccc2)cc1 [Compound A, 2-(2,2-diphenyl)ethylimidazoline]",Glucose Tolerance Improving Activity,"blood sugar level [1]; 10 mg/kg PO, glucose 2 g/kg, sum of increments at 15, 30, 60, 90 min vs control, 100 = no improvement",15.7%
same,"Blood Glucose Level, 0 min","blood sugar level [1]; 10 mg/kg, glucose 2 g/kg, 0 min",72 ± 3 mg/dL
same,"Blood Glucose Level, 15 min","blood sugar level [1]; 10 mg/kg, glucose 2 g/kg, 15 min",83 ± 6 mg/dL
same,"Blood Glucose Level, 30 min","blood sugar level [1]; 10 mg/kg, glucose 2 g/kg, 30 min",87 ± 4 mg/dL
same,"Blood Glucose Level, 60 min","blood sugar level [1]; 10 mg/kg, glucose 2 g/kg, 60 min",76 ± 3 mg/dL
same,"Blood Glucose Level, 90 min","blood sugar level [1]; 10 mg/kg, glucose 2 g/kg, 90 min",68 ± 4 mg/dL
same,"Blood Glucose Level, before glucose load (-60 min.)","blood sugar level [1]; 10 mg/kg, glucose 2 g/kg, -60 min",84 ± 1 mg/dL
same,blood sugar level maintained after glucose load,"blood sugar level [1]; normal rats, Table 1, in words",maintains the blood sugar level in the range of the fasting blood sugar level
same,rise in blood sugar level due to the glucose load,"blood sugar level [1]; normal rats, Table 1, in words",scarcely any rise in blood sugar level
same,"Blood Sugar Level (control = 100), 1 Hr",blood sugar level [2]; 10 mg/kg PO,76%
same,"Blood Sugar Level (control = 100), 2 Hrs",blood sugar level [2]; 10 mg/kg PO,71%
same,"Blood Sugar Level (control = 100), 3 Hrs",blood sugar level [2]; 10 mg/kg PO,71%
same,"Blood Sugar Level (control = 100), 5 Hrs",blood sugar level [2]; 10 mg/kg PO,65%
same,"Blood Sugar Level (control = 100), 1 Hr",blood sugar level [2]; 25 mg/kg PO,72%
same,"Blood Sugar Level (control = 100), 2 Hrs",blood sugar level [2]; 25 mg/kg PO,67%
same,"Blood Sugar Level (control = 100), 3 Hrs",blood sugar level [2]; 25 mg/kg PO,57%
same,"Blood Sugar Level (control = 100), 5 Hrs",blood sugar level [2]; 25 mg/kg PO,67%
same,"Blood Sugar Level (control = 100), 1 Hr",blood sugar level [3]; 1 h,54%
same,"Blood Sugar Level (control = 100), 2 Hrs",blood sugar level [3]; 2 h,67%
same,"Blood Sugar Level (control = 100), 3 Hrs",blood sugar level [3]; 3 h,65%
same,"Blood Sugar Level (control = 100), 5 Hrs",blood sugar level [3]; 5 h,76%
same,"Blood Sugar Level (control = 100), 1 Hr",blood sugar level [4]; 1 h,70%
same,"Blood Sugar Level (control = 100), 2 Hrs",blood sugar level [4]; 2 h,66%
same,"Blood Sugar Level (control = 100), 3 Hrs",blood sugar level [4]; 3 h,64%
same,"Blood Sugar Level (control = 100), 1 Hr",blood sugar level [5]; 10 mg/kg PO,72%
same,"Blood Sugar Level (control = 100), 2 Hrs",blood sugar level [5]; 10 mg/kg PO,71%
same,"Blood Sugar Level (control = 100), 3 Hrs",blood sugar level [5]; 10 mg/kg PO,62%
same,"Blood Sugar Level (control = 100), 5 Hrs",blood sugar level [5]; 10 mg/kg PO,63%
same,"Blood Sugar Level (control = 100), 1 Hr",blood sugar level [5]; 25 mg/kg PO,44%
same,"Blood Sugar Level (control = 100), 2 Hrs",blood sugar level [5]; 25 mg/kg PO,46%
same,"Blood Sugar Level (control = 100), 3 Hrs",blood sugar level [5]; 25 mg/kg PO,41%
same,"Blood Sugar Level (control = 100), 5 Hrs",blood sugar level [5]; 25 mg/kg PO,49%
same,Glucose Tolerance Improving Activity,blood sugar level [6],25.2%
same,Glucose Tolerance Improving Activity,blood sugar level [7],52.5%
same,Blood Sugar Level,"blood insulin [8]; after 90 minutes, control = 100",62%
same,Amount of Insulin Released,"blood insulin [8]; sum of differences at 5, 10, 20, 30, 40 min",250±15 μunit/ml
same,Blood Sugar Level,"blood insulin [9]; after 2 hours, control = 100",69.8%
same,Amount of Insulin Released,"blood insulin [9]; sum of differences at 0.5, 1.0, 2.0 hours",57±14.2 μunit/ml
same,"Serum Lactate Level, 0 Day",serum lactate level; 0 Day,0.993±0.051 μ mol/ml
same,"Serum Lactate Level, After 1 Day",serum lactate level; After 1 Day,1.386±0.073 μ mol/ml
same,"Serum Lactate Level, After 4 Days",serum lactate level; After 4 Days,1.125±0.113 μ mol/ml
same,IC50,[10],70 µM
same,LD50,Acute toxicity (rat),562 mg/kg
